# Experimental data reported in ChEMBL document CHEMBL1153284, “N-(3-fluoro-4-(2-arylthieno[3,2-b]pyridin-7-yloxy)phenyl)-2-oxo-3-phenylimidazolidine-1-carboxamides: a novel series of dual c-Met/VEGFR2 receptor tyrosine kinase inhibitors” (Bioorg Med Chem Lett, 2009).
# The source made the active and inactive calls. No cut-off for these calls is given here.
# Columns and labels:
# [1] = Half life in rat at 2.17 to 2.86 mg/kg, iv; type: ADME, organism-based; set-up: dose 2.17-2.86 mg/kg, route intravenous; conditions: in vivo
# [2] = Bioavailability in rat at 4.28 to 4.98 mg/kg, po; type: ADME, organism-based; conditions: in vivo
# [3] = target: Vascular endothelial growth factor receptor 2 (Homo sapiens, UniProt P35968); experiment: Inhibition of GST-fused recombinant VGFR2 catalytic domain expressed in baculovirus-infected Sf9 cells after 10 mins by DELFIA assay
# [4] = target: T1, Hepatocyte growth factor receptor (Homo sapiens, UniProt P08581); experiment: biochemical
# Description: Inhibition of GST-fused recombinant c-Met catalytic domain expressed in baculovirus-infected Trichoplusia ni Hi5 cells after 30 mins by DELFIA assay
# [5] = target: T1, Hepatocyte growth factor receptor; conditions: 293t
# Description: Inhibition of TPR-fused Met phosphorylation expressed in human 293T cells by ELISA
# [6] = target: Vascular endothelial growth factor receptor 3 (Homo sapiens) (UniProt P35916); experiment: Inhibition of VEGFR3 at 100 nM
# [7] = target: T2, Aurora kinase A (Homo sapiens) (UniProt O14965); experiment: Inhibition of Aurora A at 100 nM
# T2 sequence (whole entry): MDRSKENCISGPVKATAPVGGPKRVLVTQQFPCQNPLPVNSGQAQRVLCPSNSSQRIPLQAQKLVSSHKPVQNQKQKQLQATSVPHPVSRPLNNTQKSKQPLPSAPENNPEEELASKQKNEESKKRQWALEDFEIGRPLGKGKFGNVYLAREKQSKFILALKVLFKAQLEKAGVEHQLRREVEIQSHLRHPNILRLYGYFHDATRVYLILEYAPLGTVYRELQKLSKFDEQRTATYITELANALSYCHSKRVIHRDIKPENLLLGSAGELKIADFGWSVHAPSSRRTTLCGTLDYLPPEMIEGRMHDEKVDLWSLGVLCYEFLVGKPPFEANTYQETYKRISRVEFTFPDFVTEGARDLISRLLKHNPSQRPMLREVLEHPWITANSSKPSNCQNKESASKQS
# MKN-45 [8] = experiment: Antiproliferative activity against human MKN45 cells expressing c-Met after 72 hrs by MTT assay; type: functional, cell-based; conditions: MKN-45, 72 h
# HCT-116 = experiment: Antiproliferative activity against c-Met-independent human HCT116 cells after 72 hrs by MTT assay; type: functional, cell-based; conditions: HCT-116, 72 h
# [9] = Inhibition of VEGF-dependent ERK phosphorylation
# MKN-45 [10] = experiment: Antitumor activity against human MKN45 cells xenografted in mouse assessed as regression of tumor growth at 40 mg/kg, po administered once daily for 12 days; type: functional, organism-based; set-up: dose 40 mg/kg
# HOS-TE85 = experiment: Antiproliferative activity against human MNNG-HOS cells expressing TPR-fused Met after 72 hrs by MTT assay; type: functional, cell-based; conditions: HOS-TE85, 72 h
# [11] = target: Receptor-type tyrosine-protein kinase FLT3 (Homo sapiens) (UniProt P36888); experiment: Inhibition of FLT3 at 100 nM
# HUVEC [12] = experiment: Inhibition of tubule growth in HUVEC by angiogenesis assay; type: functional, cell-based; conditions: Homo sapiens
# [13] = target: Angiopoietin-1 receptor (Homo sapiens) (UniProt Q02763); experiment: Inhibition of Tie2 at 100 nM
# HUVEC [14] = experiment: Inhibition of VEGF-dependent proliferation in HUVEC; type: functional, cell-based; conditions: Homo sapiens
# [15] = target: Macrophage-stimulating protein receptor (Homo sapiens) (UniProt Q04912); experiment: Inhibition of Ron at 100 nM
# HUVEC [16] = experiment: Inhibition of tubule formation in HUVEC assessed as tubule length at 100 nM by angiogenesis assay in presence of VEGF; type: functional; conditions: Homo sapiens
# MDA-MB-231 = experiment: Antiproliferative activity against c-Met-independent human MDA-MB-231 cells after 72 hrs by MTT assay; type: functional, cell-based; conditions: MDA-MB-231, 72 h
# [17] = target: Vascular endothelial growth factor receptor 1 (Homo sapiens) (UniProt P17948); experiment: Inhibition of VEGFR1 at 100 nM
IC50 [3] [nM],IC50 [4] [nM],IC50 [5] [nM],SMILES,other results
8,,,Cn1cnc(-c2cc3nccc(Oc4ccc(NC(=O)N5CCN(c6ccccc6)C5=O)cc4F)c3s2)c1,half-life [1]: 2.3 h; bioavailability [2]: 13%
20,35,320,O=C(Nc1ccc(Oc2ccnc3cc(-c4cn(CCN5CCCC5)cn4)sc23)c(F)c1)N1CCN(c2ccccc2)C1=O,
9,28,60,Cn1cnc(-c2cc3nccc(Oc4ccc(NC(=O)C5(C(=O)Nc6ccccc6)CC5)cc4F)c3s2)c1,
37,25,,Cn1cnc(-c2cc3nccc(Oc4ccc(NC(=O)NC(=O)Cc5ccccc5)cc4F)c3s2)c1,
230,67,1000,Cn1cnc(-c2cc3nccc(Oc4ccc(NC(=O)C5(C)CCN(c6ccccc6)C5=O)cc4F)c3s2)c1 (stereo not drawn),
12,24,80,Cn1cnc(-c2cc3nccc(Oc4ccc(NC(=S)N5CCN(c6ccccc6)C5=O)cc4F)c3s2)c1,
26,24,140,CCn1ccnc1-c1cc2nccc(Oc3ccc(NC(=O)N4CCN(c5ccccc5)C4=O)cc3F)c2s1,
1800,2000,> 10000,Cn1cnc(-c2cc3nccc(Oc4ccc(NC(=O)N5CCN(c6ccccc6)C5=S)cc4F)c3s2)c1,
15,28,310,Cn1cnc(-c2cc3nccc(Oc4ccc(NC(=O)CC(=O)Nc5ccccc5)cc4F)c3s2)c1,
12,25,40,CCn1cnc(-c2cc3nccc(Oc4ccc(NC(=O)N5CCN(c6ccccc6)C5=O)cc4F)c3s2)c1,
170,33,300,CN1CC=C(c2cc3nccc(Oc4ccc(NC(=O)N5CCN(c6ccccc6)C5=O)cc4F)c3s2)CC1,
7,27,50,CCn1cnc(-c2cc3nccc(Oc4ccc(NC(=O)N5CCN(c6ccc(F)cc6)C5=O)cc4F)c3s2)c1,inhibition [6]: 99%; half-life [1]: 6.3 h; inhibition [7]: 9%; IC50 (MKN-45 [8]): 10 nM; IC50 (HCT-116): 13000 nM; IC50 [9]: 1 nM; Activity (MKN-45 [10]): Active; IC50 (HOS-TE85): 33 nM; bioavailability [2]: 37%; inhibition [11]: 80%; IC50 (HUVEC [12]): 6 nM; inhibition [13]: 99%; IC50 (HUVEC [14]): 6 nM; inhibition [15]: 100%; inhibition at 0.1 µM (HUVEC [16]): 98%; IC50 (MDA-MB-231): 20000 nM; inhibition [17]: 99%
14,26,60,CCn1cnc(-c2cc3nccc(Oc4ccc(NC(=O)N5CCN(c6ccccc6OC)C5=O)cc4F)c3s2)c1,
23,42,230,CN(C)[C@H]1CCN(C(=O)c2cc3nccc(Oc4ccc(NC(=O)N5CCN(c6ccccc6)C5=O)cc4F)c3s2)C1,
16,39,210,CC(C)n1cnc(-c2cc3nccc(Oc4ccc(NC(=O)C5CCN(c6ccccc6)C5=O)cc4F)c3s2)c1 (stereo not drawn),
11,22,420,O=C(Nc1ccc(Oc2ccnc3cc(-c4ccc(CN5CCNCC5)cc4)sc23)c(F)c1)N1CCN(c2ccccc2)C1=O,
14,34,60,CN(C)CCn1cnc(-c2cc3nccc(Oc4ccc(NC(=O)N5CCN(c6ccccc6)C5=O)cc4F)c3s2)c1,
800,300,,CC(C)n1cnc(-c2cc3nccc(Oc4ccc(NC(=O)C5CC(=O)N(c6ccccc6)C5)cc4F)c3s2)c1 (stereo not drawn),
8,16,80,CNC(=O)N1CCN(Cc2ccc(-c3cc4nccc(Oc5ccc(NC(=O)N6CCN(c7ccccc7)C6=O)cc5F)c4s3)cc2)CC1,
31,26,120,Cn1ccnc1-c1cc2nccc(Oc3ccc(NC(=O)N4CCN(c5ccccc5)C4=O)cc3F)c2s1,
8,21,300,O=C(Nc1ccc(Oc2ccnc3cc(-c4cn(CCCN5CCCC5)cn4)sc23)c(F)c1)N1CCN(c2ccccc2)C1=O,
57,1000,1440,CN(C(=O)C1(C(=O)Nc2ccc(Oc3ccnc4cc(-c5cn(C)cn5)sc34)c(F)c2)CC1)c1ccccc1,
26,,,Cn1cnc(-c2cc3nccc(Oc4ccc(NC(=S)NC(=O)Cc5ccccc5)cc4F)c3s2)c1,half-life [1]: 1.2 h
39,35,370,Cn1cnc(-c2cc3nccc(Oc4ccc(NC(=O)C5CCN(c6ccccc6)C5=O)cc4F)c3s2)c1 (stereo not drawn),half-life [1]: 1.1 h; bioavailability [2]: 14%
10,43,160,CN(C(=O)CC(=O)Nc1ccc(Oc2ccnc3cc(-c4cn(C)cn4)sc23)c(F)c1)c1ccccc1,
3,28,830,CN1CCN(CCN(C)Cc2ccc(-c3cc4nccc(Oc5ccc(NC(=O)N6CCN(c7ccccc7)C6=O)cc5F)c4s3)cc2)CC1,
880,200,270,CC(=O)c1cccc(-c2cc3nccc(Oc4ccc(NC(=O)N5CCN(c6ccccc6)C5=O)cc4F)c3s2)c1,
3,21,100,CCn1cnc(-c2cc3nccc(Oc4ccc(NC(=O)N5CCN(c6ccccc6F)C5=O)cc4F)c3s2)c1,
12,29,250,CN1CCN(Cc2ccc(-c3cc4nccc(Oc5ccc(NC(=O)N6CCN(c7ccccc7)C6=O)cc5F)c4s3)cc2)CC1,
